Key:
Water solubility at pH 2 = format: physicochemical
[1] = Bioavailability of solid form; format: in vivo; details: formulated in solid form
[2] = Dissolution of the active principle in aqueous/acidic medium; format: physicochemical; details: oral administration

solubility (Water solubility at pH 2; water, in the form of the lactate, pH 2, read-out: optimum solubility) [µg/mL] | water solubility (Water solubility at pH 2; basic non-salified form, relative to the lactate) | bioavailability [1] | dissolution time in the aqueous medium of the stomach [2] | Compound
800 | – | – | – | CC(C)(C)c1ccc(C(=O)CCCN2CCC(OC(c3ccccc3)c3ccccc3)CC2)cc1 [compound of formula (I) lactate]
– | even lower | very mediocre | very long | CC(C)(C)c1ccc(C(=O)CCCN2CCC(OC(c3ccccc3)c3ccccc3)CC2)cc1 [compound of formula (I), 4-diphenylmethoxy-1-[3-(4-tert-butylbenzoyl)propyl]piperidine]

Source: patent publication US5460829A, “Pharmaceutical compositions based on ebastine or analogues thereof” (Rhone-Poulenc Rorer S.A., priority 1991, dated 1995)
